Three compounds from US3984501A, “Phenyl- and benzylphosphonate esters” (priority 1975, dated 1976) can be followed below.

pIC50: −log10 of the molar value. Where two headings read alike, the source gives them in different places. A value given as a limit tells only on which side of the number the result lay.

The test system of data set [1] is PGE2-induced contraction of isolated guinea pig ileum (GPI) and isolated rat fundus (RF). Description: Inhibition of PGE2-induced contraction of isolated smooth muscle preparations (anti-prostaglandin activity). Format: cell-based. To be noted: for pIC50: isolated GPI or RF (tissue not specified per value), incubation 15 min initial exposure, 5 min each successive increment, read-out: I.C.50 (vs PGE2). As to the method: (§1) The following compounds were tested for their effects on isolated smooth muscle preparations ##SPC18##
(§2) the techniques for setting up the isolated guinea pig ileum (GPI) and isolated rat fundus (RF) were those described in Pharmacological Experiments on Isolated Preparations (E. S. Livingston Ltd., Publishers). The tissues were bathed in Krebs solution and isotonic contractions were recorded. To elicit a maximal contraction after the initial equilibration period, the tissue (GPI or RF) was exposed to 20 ng/ml acetylcholine (ACh). After a dose-dependent pattern was established with ACh, the tissue was exposed to 20 ng/ml of PGE2 in order to elicit a maximal prostaglandin-induced contraction. Test doses of PGE2 and ACh which cause 50% of the maximal contractions were determined.
(§3) To test a compound for anti-prostaglandin activity, the tissue was incubated with a compound for a fixed period of time (15 minutes for the initial exposure to the test drug and 5 minutes for each successive increment in concentration) followed by the test dose of PGE2 or ACh to elicit a tissue contraction. Inhibition of contraction was measured as percent reduction in the magnitude of the response to the test dose of PGE2. The concentration of drug which inhibited the test concentration of PGE2 by 50% (I.C.50) was determined from the dose-response curve obtained by plotting concentration versus percent inhibition. Test contractions with ACh determined whether any decrease in contraction amplitude was specific for prostaglandin-induced contractions or a general deterioration of tissue function. The term selectivitiy refers to % inhibition of ACh-induced contractions at compound dosages which inhibi the PGE2 -induced contraction by the indicated percentage.

Data set [2] deals with ACh-induced contractions of isolated guinea pig ileum (GPI) and isolated rat fundus (RF). Description: Inhibition of ACh-induced contraction of isolated smooth muscle (selectivity). Format: cell-based. To be noted: for Selectivity: % inhibition of ACh-induced contractions at dosages which inhibit the PGE2-induced contraction by 50%: at 50% inhibition of PGE2-induced contraction; for Selectivity: % inhibition of ACh-induced contractions at dosages which inhibit the PGE2-induced contraction by 70%: at 70% inhibition of PGE2-induced contraction; for Selectivity: % inhibition of ACh-induced contractions at dosages which inhibit the PGE2-induced contraction by 90%: at 90% inhibition of PGE2-induced contraction. As to the method: as §1, §2, §3

The nature of data set [3]: Systemic toxicity in male Swiss Webster mice. To be noted: mouse, in vivo, in saline, 24 hours, read-out: L.D.50 at 24 hours. Format: in vivo, mouse. As to the method: (§4) Compounds 1-3 were tested for systemic toxicity. Male Swiss Webster mice were injected (i.p. or p.o.) with the test compound dissolved in saline (0.2 ml). The mice were examined every half hour for the first two hours after treatment and every hour for the following four hours. Thereafter the mice were examined irregularly, with a final examination at the end of the 48-hour test.

Data set [4] is described as follows: Topical toxicity in hairless mice. To be noted: mouse, in vivo, topical or ocular, topically, 0.1 ml of 90% PEG, read-out: L.D.50 at 24 hours. The method, then:
Topical toxicity was determined at a single dosage level on two hairless mice. The animals were restrained with neck collars. The test compound was applied in a total volume of 0.1 ml of 90% PEG (10% H2 O) spread uniformly over the back by means of a Q-tip.

A further data set has as its system male Swiss Webster mice. Briefly: Systemic toxicity in male Swiss Webster mice. Format: in vivo, mouse. To be noted: from Table 2, vs compound 1. As to the method:
as §4

As to `O=C(c1ccc(OP(=O)(O)Oc2ccccc2)cc1)C(Cc1ccccc1)Cc1ccc(Cl)cc1` (centres unmarked) [Compound 1, reference compound], in data set [1] (Cavia porcellus), the pIC50 was 7.33. In data set [2], the “Selectivity: % inhibition of ACh-induced contractions at dosages which inhibit the PGE2-induced contraction by 50%” value (“Selectivity: % inhibition … by 50%” for short) came out at 0%, the “Selectivity: % inhibition of ACh-induced contractions at dosages which inhibit the PGE2-induced contraction by 70%” value (shortened to “Selectivity: % inhibition … by 70%”) came out at 0% and the “Selectivity: % inhibition of ACh-induced contractions at dosages which inhibit the PGE2-induced contraction by 90%” value (“Selectivity: % inhibition … by 90%” below) is listed as 0%. The LD50 at 24 h in data set [3] (ip) came to 194 mg/kg. For the same compound, the LD50 at 24 h in data set [3] (po) came to 235 mg/kg. Further, the LD50 at 24 h in data set [4] is greater than 4300 mg/kg.
Regarding `O=C(c1ccc(OP(=O)(O)c2ccccc2)cc1)C(Cc1ccccc1)Cc1ccc(Cl)cc1` (centres unmarked) [Compound 2], the pIC50 in data set [1] is 6.70. In data set [2], the “Selectivity: % inhibition … by 50%” value is 0%, the “Selectivity: % inhibition … by 70%” value is given as 0% and the “Selectivity: % inhibition … by 90%” value is given as 30%. In data set [3] (ip), the LD50 at 24 h was found to be 361 mg/kg. Besides, in the data set with male Swiss Webster mice, the “toxicity relative to compound 1” value is reported as “considerably less toxic than compound 1”.
As for `O=C(c1ccc(OP(=O)(O)Cc2ccccc2)cc1)C(Cc1ccccc1)Cc1ccc(Cl)cc1` (centres unmarked) [Compound 3], the pIC50 in data set [1] is 8.21. Besides, the “times more potent than compound 1” value in data set [1] (potency ratio vs compound 1, from Table 1) is “about 8 times”. Moreover, the “times more potent than compound 2” value in data set [1] (potency ratio vs compound 2, from Table 1) was “approximately 30 times”. The “Selectivity: % inhibition … by 50%” value in data set [2] is reported as 0%. Moreover, the “Selectivity: % inhibition … by 70%” value in data set [2] is reported as 0%. In addition, the “Selectivity: % inhibition … by 90%” value in data set [2] is 10-15%. Moreover, the values for the LD50 at 24 h in data set [3] (ip), in data set [3] (po) and in data set [4] were 408 mg/kg, 715 mg/kg and greater than 4350 mg/kg, respectively. Further, the “toxicity relative to compound 1” value in the data set with male Swiss Webster mice is given as “considerably less toxic than compound 1”.
